The values below come from ChEMBL document CHEMBL5252675, “Discovery of new 5-substituted-indole-2-carboxamides as dual epidermal growth factor receptor (EGFR)/cyclin dependent kinase-2 (CDK2) inhibitors with potent antiproliferative action” (RSC Med Chem, 2023).

One data set relates to MCF7. Briefly: Antiproliferative activity against human MCF7 cells by MTT assay. Type of data set: functional, cell-based.
In the next data set the test system is MCF-10A. The experiment in a line: Cytotoxicity against human MCF-10A cells assessed as reduction in cell viability at 50 uM incubated for 4 days by MTT assay. Format: toxicity, cell-based. As to conditions: 96 h, time 4 day.
The next data set has as its system PANC-1. Briefly: Antiproliferative activity against human PANC-1 cells by MTT assay. Type of data set: functional, cell-based.
Another data set concerns A549. Briefly: Antiproliferative activity against human A549 cells by MTT assay. Format: functional, cell-based.
A further data set has as its system HT-29. The experiment in a line: Antiproliferative activity against human HT-29 cells by MTT assay. Format: functional, cell-based.
Data set [1] addresses Epidermal growth factor receptor (Homo sapiens, UniProt P00533). The experiment in a line: Inhibition of EGFR (unknown origin).
For data set [2], the target named is Cyclin-dependent kinase 2 (Homo sapiens, UniProt P24941).
Description: Inhibition of CDK2 (unknown origin)

Epidermal growth factor receptor, sequence (P00533 whole entry): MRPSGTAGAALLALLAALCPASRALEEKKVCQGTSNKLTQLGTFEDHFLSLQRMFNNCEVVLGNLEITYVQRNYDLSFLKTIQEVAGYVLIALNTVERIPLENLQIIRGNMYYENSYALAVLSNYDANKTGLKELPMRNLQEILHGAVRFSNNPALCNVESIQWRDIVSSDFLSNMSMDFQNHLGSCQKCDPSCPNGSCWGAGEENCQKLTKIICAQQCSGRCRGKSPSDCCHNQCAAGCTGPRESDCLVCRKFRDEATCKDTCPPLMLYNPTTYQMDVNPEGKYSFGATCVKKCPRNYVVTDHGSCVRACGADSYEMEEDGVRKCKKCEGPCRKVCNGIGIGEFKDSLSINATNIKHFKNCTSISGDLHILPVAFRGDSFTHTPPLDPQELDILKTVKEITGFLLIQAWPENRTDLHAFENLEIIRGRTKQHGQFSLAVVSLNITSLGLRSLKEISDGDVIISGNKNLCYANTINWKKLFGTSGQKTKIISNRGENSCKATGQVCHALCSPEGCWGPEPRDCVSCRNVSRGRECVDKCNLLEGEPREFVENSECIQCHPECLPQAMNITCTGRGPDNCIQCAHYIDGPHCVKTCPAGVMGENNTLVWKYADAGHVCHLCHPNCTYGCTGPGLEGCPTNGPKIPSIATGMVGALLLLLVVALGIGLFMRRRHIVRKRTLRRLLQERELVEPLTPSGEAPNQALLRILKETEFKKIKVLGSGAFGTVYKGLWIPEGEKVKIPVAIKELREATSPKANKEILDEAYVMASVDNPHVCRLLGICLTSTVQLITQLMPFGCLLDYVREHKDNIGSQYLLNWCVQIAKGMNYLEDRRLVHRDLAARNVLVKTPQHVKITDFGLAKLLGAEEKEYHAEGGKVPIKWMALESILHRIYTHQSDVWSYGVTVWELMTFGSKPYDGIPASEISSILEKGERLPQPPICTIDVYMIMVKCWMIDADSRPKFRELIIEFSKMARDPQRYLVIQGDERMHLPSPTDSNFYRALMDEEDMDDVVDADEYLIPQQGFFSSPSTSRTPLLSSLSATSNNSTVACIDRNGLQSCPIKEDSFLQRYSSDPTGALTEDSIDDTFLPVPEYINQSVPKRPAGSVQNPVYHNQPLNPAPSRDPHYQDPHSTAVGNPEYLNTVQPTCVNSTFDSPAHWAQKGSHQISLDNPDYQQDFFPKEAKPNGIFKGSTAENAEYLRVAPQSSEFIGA

Take `CCc1c(C(=O)N2CCN(c3ccccc3)CC2)[nH]c2ccc(C(F)(F)F)cc12`: the IC50 in the data set with MCF7 worked out at 123 nM; in the data set with PANC-1, 130 nM; with A549 it was 117 nM; in the data set on HT-29 it was 130 nM. Moreover, the Activity with MCF-10A is 91%.

With `CCc1c(C(=O)NCCc2ccccc2)[nH]c2ccc(C)cc12`, the IC50 was 134 nM in data set [1]; 46 nM in data set [2]; 69 nM in the data set on MCF7; 72 nM with PANC-1; 64 nM with A549; 75 nM with HT-29. For the same molecule, the Activity in the data set with MCF-10A is reported as 87%.

On to `CCc1c(C(=O)NCCc2ccc(N3CCOCC3)cc2)[nH]c2ccc(C(F)(F)F)cc12`, for which the IC50 was 94 nM in data set [1]; 24 nM in data set [2]; 45 nM in the data set on MCF7; 52 nM with PANC-1; 43 nM in the data set on A549; 55 nM in the data set with HT-29. In the data set with MCF-10A, the Activity amounted to 87%.

In the case of `CCc1c(C(=O)NCCc2ccc(N3CCCC3C)cc2)[nH]c2ccc(Br)cc12` (stereo not given), the IC50 was 185 nM in the data set with MCF7, 190 nM in the data set on PANC-1, 172 nM in the data set on A549 and 197 nM in the data set on HT-29. Also, the Activity with MCF-10A is on record as 86%.

Turning to `CCc1c(C(=O)NCCc2ccc(N(C)C)cc2)[nH]c2ccc(Br)cc12`, the IC50 in the data set on MCF7 was 112 nM; with PANC-1, 115 nM; in the data set with A549 it was 108 nM; with HT-29, 120 nM. In the data set with MCF-10A, the Activity was 91%.

In the case of `CCc1c(C(=O)NCCc2ccccc2)[nH]c2ccc(C(F)(F)F)cc12`, the IC50 was 162 nM in the data set on MCF7, 165 nM with PANC-1, 157 nM in the data set with A549 and 170 nM with HT-29. In the data set on MCF-10A, the Activity stood at 88%.

For the molecule `CCc1c(C(=O)NCCc2ccc(N3CCCCC3)cc2)[nH]c2ccc(Br)cc12`, the IC50 in the data set on MCF7 stood at 93 nM; in the data set with PANC-1 it was 97 nM; in the data set on A549, 89 nM; in the data set on HT-29 it was 97 nM. Also, the Activity with MCF-10A amounted to 90%.

Turning to `Cc1c(C(=O)NCCc2ccc(F)cc2)[nH]c2cc(F)ccc12`, the figures for the IC50 in data set [1] and in data set [2] were 98 nM and 34 nM, respectively.

With `CCc1c(C(=O)NCCc2ccccc2)[nH]c2ccc(Br)cc12`, the IC50 in the data set with MCF7 was 142 nM; in the data set with PANC-1 it was 145 nM; in the data set with A549 it was 138 nM; in the data set on HT-29, 148 nM. Moreover, in the data set on MCF-10A, the Activity is on record as 89%.

On to `CCc1c(C(=O)NCCc2ccc(N3CCOCC3)cc2)[nH]c2ccc(C)cc12`, for which the IC50 in data set [1] stood at 85 nM; in data set [2], 16 nM; in the data set on MCF7, 42 nM; with PANC-1 it was 35 nM; with A549, 34 nM; with HT-29, 37 nM. The Activity with MCF-10A was 89%.

For `CCc1c(C(=O)N2CCN(c3ccccc3)CC2)[nH]c2ccc(C)cc12`, the IC50 with MCF7 came to 132 nM; in the data set with PANC-1 it was 137 nM; in the data set on A549, 125 nM; in the data set on HT-29, 140 nM. Further, the Activity in the data set with MCF-10A turned out to be 90%.

For the molecule `CCc1c(C(=O)NCCc2ccc(N3CCCCC3)cc2)[nH]c2ccc(C)cc12`, the IC50 in data set [1] was found to be 117 nM; in data set [2], 33 nM; in the data set with MCF7, 54 nM; with PANC-1, 59 nM; in the data set on A549, 51 nM; in the data set with HT-29, 57 nM. In addition, in the data set on MCF-10A, the Activity came out at 89%.

With `CCc1c(C(=O)N2CCN(c3ccccc3)CC2)[nH]c2ccc(Br)cc12`, the IC50 was determined as 190 nM with MCF7, 195 nM in the data set on PANC-1, 185 nM in the data set on A549 and 202 nM in the data set with HT-29. Besides, the Activity in the data set on MCF-10A was found to be 85%.

Consider `CCc1c(C(=O)NCCc2ccc(N3CCCCC3)cc2)[nH]c2ccc(C(F)(F)F)cc12`, for which the IC50 with MCF7 is 82 nM; with PANC-1, 85 nM; with A549, 77 nM; in the data set on HT-29, 87 nM. Besides, in the data set on MCF-10A, the Activity came out at 85%.

Take `CCc1c(C(=O)NCCc2ccc(N3CCOCC3)cc2)[nH]c2ccc(Br)cc12`: the half-maximal inhibitory concentration (IC50) in the data set on MCF7 is 74 nM; with PANC-1, 75 nM; in the data set with A549 it was 67 nM; in the data set with HT-29, 79 nM. The Activity with MCF-10A came to 91%.
